# Values of other authors, collected in patent US6921754B2, “Compositions containing folic acid and reduced folate” (BASF Aktiengesellschaft, priority 2000, dated 2005).
# System: neural tube defects (NTDs) in neonates
# Conditions: supplementation of pregnant women with 0.4 to 4 mg of folic acid/day (Hages et al., 1996)
structure (smiles),measurement,value
"Nc1nc2ncc(CNc3ccc(C(=O)N[C@@H](CCC(=O)O)C(=O)O)cc3)nc2c(=O)[nH]1 [folic acid, N-[4-(2-Amino-3,4-dihydro-4-oxo-6-pteridinylmethylamino)-benzoyl]-L-glutamic acid]",decrease in the frequency of abnormalities in newborn infants,50-80%
